Assay results as given in ChEMBL document CHEMBL1201862, “PubChem BioAssay data set” (2004).
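Interpolation was linear, between the two tested concentrations surrounding the appropriate level; five concentrations were tested over 48 hours in 96-well plates. GI50 marks 50% less growth.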 The source made the active and inactive calls. Rule as the data show it: active = GI50 up to about 1.1 µM and inactive = higher.

Key:
Assay in all cases: NCI-60 cell line screen, 48 h
[1] = system: ACHN
[2] = system: BT-549
[3] = system: DU-145
[4] = system: HCT-116
[5] = system: HCT-15
[6] = system: HOP-62
[7] = system: HOP-92
[8] = system: Hs-578T
[9] = system: K562
[10] = system: KM12
[11] = system: M14
[12] = system: Malme-3M
[13] = system: NCI-H23
[14] = system: NCI-H460
[15] = system: OVCAR-4
[16] = system: RXF 393
[17] = system: SF-539
[18] = system: SK-MEL-5
[19] = system: UACC-62
[20] = system: KM-20L2

Measured: GI50

CN(C)CCNc1nc2ccccc2c2c1C(=O)c1ccccc1-2
inactive: [8] 2.1 µM
0.15 µM: [5]
active: [1] 0.0834 µM | [2] 0.914 µM | [3] 0.149 µM | [4] 0.049 µM | [6] 0.233 µM | [7] 0.327 µM | [9] 0.163 µM | [10] 0.326 µM | [11] 0.316 µM | [12] 0.251 µM | [13] 0.316 µM | [14] < 0.0194 µM | [15] 0.338 µM | [16] 0.18 µM | [17] 0.382 µM | [18] 0.301 µM | [19] 0.0849 µM

NC(=O)c1csc(C2C=CC(CO)O2)n1 (centres undefined)
> 100 µM: [5]
inactive: [1] > 100 µM | [4] > 100 µM | [6] > 100 µM | [7] > 100 µM | [9] > 100 µM | [20] > 100 µM | [10] > 10 µM | [11] > 100 µM | [12] > 100 µM | [13] > 100 µM | [14] > 100 µM | [15] > 100 µM | [17] > 100 µM | [19] > 100 µM

COc1cc2c(cc1OC)C1Cc3cc(OC)c(OC)cc3N1CC2 (centres undefined)
inactive: [1] 22.3 µM | [4] 31.1 µM | [6] 27.6 µM | [7] 33 µM | [9] 27.5 µM | [20] 38.6 µM | [10] 28.6 µM | [11] 20 µM | [12] 20.9 µM | [13] 29.5 µM | [14] 40.2 µM | [15] 18.9 µM | [19] 26.1 µM

COC(=O)C1=C(O)c2cc(-c3ccccc3)c(-c3ccccc3)c(C#N)c2NC(=O)C1
inactive: [1] 24 µM | [4] 1.92 µM | [6] 20.4 µM | [9] 3.27 µM | [20] 13.1 µM | [10] 7.01 µM | [11] 4.99 µM | [13] > 100 µM | [14] 3.7 µM | [15] 27.2 µM | [16] 1.7 µM | [17] 7.33 µM | [19] 3.97 µM
1.55 µM: [5]

Cc1cc(C)nc(NS(=O)(=O)c2ccc(Nc3c4ccccc4nc4c(C(=O)NCCN(C)C)cccc34)cc2)n1
active: [14] 0.771 µM
5.66 µM: [5]
inactive: [1] 3.49 µM | [4] 1.53 µM | [6] 2.52 µM | [9] 2.08 µM | [20] 6.61 µM | [10] 3.43 µM | [11] 6.5 µM | [13] 4.26 µM | [15] 3.04 µM | [16] 6.32 µM | [17] 2.85 µM | [18] 5.75 µM | [19] 3.55 µM

CSC(C1c2ccccc2N(c2ccc(C)cc2)C2=NC(=O)N(C)C(=O)C21Cl)S(=O)(=O)c1ccc(C)cc1 (centres undefined)
inactive: [1] 31.4 µM | [4] 13 µM | [6] 20.7 µM | [7] 11 µM | [9] 19.1 µM | [20] 21.7 µM | [11] 26.9 µM | [12] 17.2 µM | [13] 22 µM | [14] 24 µM | [15] 17.9 µM | [17] 17.5 µM | [18] 17.3 µM | [19] 21.6 µM

COc1ccc2c(c1)N(CCC1CCCCN1C)c1ccccc1S2 (centres undefined) [OXYRIDAZINE]
inactive: [1] 13.8 µM | [2] 16.1 µM | [3] 13.2 µM | [4] 12.8 µM | [6] 15.8 µM | [7] 9.08 µM | [8] 10.3 µM | [9] 4.37 µM | [10] 10.8 µM | [11] 3.13 µM | [12] 18.2 µM | [13] 17.1 µM | [14] 7.46 µM | [15] 11.1 µM | [16] 7.18 µM | [17] 23.1 µM | [18] 10.8 µM | [19] 12.6 µM
13.4 µM: [5]
